Reference: patent publication US8629141B2, “Spiro-oxindole MDM2 antagonists” (The Regents of the University of Michigan, priority 2011, dated 2014)

Tests used:
[1] = molecular target: recombinant human His-tagged MDM2 protein (residues 1-118) (Homo sapiens (Human), UniProt Q00987); experiment: Fluorescence-polarization MDM2 competitive binding assay; conditions: for IC50: FP competition with PMDM6-F peptide (1 nM), MDM2 10 nM, 3 h incubation, read-out: Binding affinities to MDM2 (1-118) IC50
Experimental: The binding affinity of the MDM2 inhibitors disclosed herein was determined using a fluorescence polarization-based (FP-based) binding assay using a recombinant human His-tagged MDM2 protein (residues 1-118) and a fluorescently tagged p53-based peptide.
(García-Echeverria et al., J. Med. Chem. 43: 3205-3208 (2000)). […] The assay was performed in the buffer: 100 mM potassium phosphate, pH 7.5; 100 μg/mL bovine gamma globulin; 0.02% sodium azide, 0.01% Triton X-100) and the polarization values were measured after 3 h of incubation using an ULTRA READER (Tecan U.S. Inc., Research Triangle Park, N.C.). […] The Kd value was calculated using the equation: Kd value=IC50−L0/2.
100 μg/mL bovine gamma globulin; 0.02% sodium azide, 0.01% Triton X-100), were added in a Dynex 96-well, black, round-bottom plate to produce a final volume of 125 μL. […] The polarization values were measured after 3 h of incubation. […] Curve fitting was performed using […] PRISM software (GraphPad Software, Inc., San Diego, Calif.).

[2] = Stability in 1:1 MeOH:H2O with 10% TFA; assay type: physicochemical; conditions: 1:1 MeOH:H2O with 10% TFA added, UPLC (FIG. 6)
Experimental: The stability of Compound Example Nos. 10 and 11 were determined in 1:1 MeOH:H2O with 10% TFA added using ultra performance liquid chromatography (FIG. 6).

[3] = Stability of compounds in solution, 1:1 CH3CN:H2O; assay type: physicochemical; conditions: ultra performance liquid chromatography (FIG. 5)
[4] = Stability of compounds in solution, 1:1 MeOH:H2O; assay type: physicochemical; conditions: ultra performance liquid chromatography (FIG. 4)

| SMILES | IC50 [1] [nM] | also measured |
| --- | --- | --- |
| CC1(C)N[C@@H](C(=O)NC2CCC(O)CC2)[C@H](c2cccc(Cl)c2F)[C@]12C(=O)Nc1cc(Cl)ccc12 (some centres unmarked) [Compound 1] | 201 | Ki ([1]; FP competition with PMDM6-F peptide, read-out: Binding affinities to MDM2 (1-118) Ki): 26.4 nM |
| O=C(NC1CCC(O)CC1)[C@@H]1NC[C@@]2(C(=O)Nc3cc(Cl)ccc32)[C@H]1c1cccc(Cl)c1F (some centres unmarked) [Compound 5] | > 10000 |  |
| CC1(O)CC(NC(=O)[C@@H]2NC3(CCCCC3)[C@@]3(C(=O)Nc4cc(Cl)ccc43)[C@H]2c2cccc(Cl)c2F)C1 (some centres unmarked) [Compound 33] | < 100 |  |
| O=C(NC1CCC(O)CC1)[C@@H]1NC2(CCOCC2)[C@]2(C(=O)Nc3cc(Cl)ccc32)[C@H]1c1cccc(Cl)c1F (some centres unmarked) [compound 10] |  | Stability in solution (isomer conversion) [2]: converted into Compound Example No. 11 |
| CNC(=O)[C@@H]1NC2(CCCCC2)[C@@]2(C(=O)Nc3cc(Cl)ccc32)[C@H]1c1cc(Cl)cnc1OC(C)(C)C(=O)O [Compound 35] | > 10000 |  |
| O=C(NCCN1CCOCC1)[C@@H]1NC2(CCCCC2)[C@@]2(C(=O)Nc3cc(Cl)ccc32)[C@H]1c1cccc(Cl)c1F [Compound 15] | < 100 |  |
| O=C(NC1CN(C(=O)O)C1)[C@@H]1NC2(CCCCC2)[C@@]2(C(=O)Nc3cc(Cl)ccc32)[C@H]1c1cccc(Cl)c1F [Compound 39] | < 100 |  |
| O=C(NCCN1CCOCC1)[C@@H]1NC2(CCC(F)(F)CC2)[C@@]2(C(=O)Nc3cc(Cl)ccc32)[C@H]1c1cccc(Cl)c1F [Compound 7] | < 1000 |  |
| O=C(NC1CCC(O)CC1)[C@@H]1NC2(CCCCC2)[C@@]2(C(=O)Nc3cc(Cl)ccc32)[C@H]1c1cccc(Cl)c1F (some centres unmarked) [Compound 41] | < 100 |  |
| CS(=O)(=O)CCNC(=O)[C@@H]1NC2(CCCCC2)[C@@]2(C(=O)Nc3cc(Cl)ccc32)[C@H]1c1cccc(Cl)c1F [Compound 20] | < 100 |  |
| O=C(NCc1nnn[nH]1)[C@@H]1NC2(CCCCC2)[C@@]2(C(=O)Nc3cc(Cl)ccc32)[C@H]1c1cccc(Cl)c1F [Compound 32] | < 100 |  |
| CCC1(CC)N[C@@H](C(=O)NCCN2CCOCC2)[C@H](c2cccc(Cl)c2F)[C@]12C(=O)Nc1cc(Cl)ccc12 [Compound 6] | < 1000 |  |
| O=C(NCCN1CCOCC1)[C@@H]1NC2(CCOCC2)[C@@]2(C(=O)Nc3cc(Cl)ccc32)[C@H]1c1cccc(Cl)c1F [Compound 12] | < 5000 |  |
| O=C(NC1CN(C(=O)O)C1)[C@@H]1NC2(CCCCC2)[C@@]2(C(=O)Nc3cc(Cl)ccc32)[C@H]1c1cccc(Cl)c1F [compound 39] |  | Stability in solution [3]: more stable than MI-77301; Stability in solution [4]: more stable than MI-77301 |
| CS(=O)(=O)CCN1CCC(NC(=O)[C@@H]2NC3(CCCCC3)[C@@]3(C(=O)Nc4cc(Cl)ccc43)[C@H]2c2cccc(Cl)c2F)CC1 [Compound 25] | < 100 |  |
| CNC(=O)[C@@H]1NC2(CCCCC2)[C@@]2(C(=O)Nc3cc(Cl)ccc32)[C@H]1c1cc(Cl)ccc1OC(C)(C)C(=O)O [Compound 34] | > 10000 |  |
| O=C(NCCN1CCOCC1)[C@@H]1NC2(CCC(F)(F)CC2)[C@]2(C(=O)Nc3cc(Cl)ccc32)[C@H]1c1cccc(Cl)c1F [Compound 8] | < 5000 |  |
| O=C(O)[C@@H]1NC2(CCCCC2)[C@@]2(C(=O)Nc3cc(Cl)ccc32)[C@H]1c1cccc(Cl)c1F [Compound 26] | < 500 |  |
